Data reported in the NIST ThermoML archive (doi:10.1021/je049721u).
Several values for one entry are separate records, joined by “and”; a condition that tells them apart may be missing. Equal entries are not always repeated. Numbers after ± are expanded uncertainties.

How the values were obtained:
[1] = mn = molality of the nth substance listed, in mol/kg; details: 101.3 kPa, Liquid, m2 = 0
[2] = 101.3 kPa, Liquid

Row | Structure (SMILES) | mass density ([1]; 283.15 K) [kg/m3] | mass density ([1]; 293.15 K) [kg/m3] | mass density ([1]; 298.15 K) [kg/m3] | mass density ([1]; 303.15 K) [kg/m3] | mass density ([1]; 313.15 K) [kg/m3] | mass density ([1]; 323.15 K) [kg/m3] | mass density ([1]; 333.15 K) [kg/m3] | mass density ([2]; 283.15 K) | mass density ([2]; 293.15 K) | mass density ([2]; 298.15 K) | mass density ([2]; 303.15 K) | mass density ([2]; 313.15 K) | mass density ([2]; 323.15 K) | mass density ([2]; 333.15 K)
1 | CN(C)C=O [dimethylformamide] + [Co+2].[O-][Cl+3]([O-])([O-])[O-].[O-][Cl+3]([O-])([O-])[O-] | 958.163 ± 0.58 | 948.653 ± 0.59 | 943.884 ± 0.59 | 939.114 ± 0.59 | 929.529 ± 0.6 | 919.9 ± 0.61 | 910.2 ± 0.61 | – | – | – | – | – | – | –
2 | CN(C)C=O [dimethylformamide] + [Mn+2].[O-][Cl+3]([O-])([O-])[O-].[O-][Cl+3]([O-])([O-])[O-] | 958.077 ± 0.58 | 948.565 ± 0.58 | 943.797 ± 0.59 | 939.017 ± 0.59 | 929.437 ± 0.6 | 919.807 ± 0.6 | 910.12 ± 0.61 | – | – | – | – | – | – | –
3 | CN(C)C=O [dimethylformamide] + [Ni+2].[O-][Cl+3]([O-])([O-])[O-].[O-][Cl+3]([O-])([O-])[O-] | 958.163 ± 0.58 | 948.653 ± 0.59 | 943.884 ± 0.59 | 939.114 ± 0.59 | 929.529 ± 0.6 | 919.9 ± 0.61 | 910.2 ± 0.61 | – | – | – | – | – | – | –
4 | CN(C)C=O [dimethylformamide] + [O-][Cl+3]([O-])([O-])[O-].[O-][Cl+3]([O-])([O-])[O-].[Zn+2] | 958.163 ± 0.58 | 948.653 ± 0.59 | 943.884 ± 0.59 | 939.114 ± 0.59 | 929.529 ± 0.6 | 919.9 ± 0.61 | 910.2 ± 0.61 | – | – | – | – | – | – | –
5 | CN(C)C=O [dimethylformamide] | – | – | – | – | – | – | – | 958.077 ± 0.58 kg/m3 and 958.163 ± 0.58 kg/m3 and 958.075 ± 0.58 kg/m3 | 948.565 ± 0.58 kg/m3 and 948.653 ± 0.59 kg/m3 | 943.797 ± 0.59 kg/m3 and 943.884 ± 0.59 kg/m3 | 939.017 ± 0.59 kg/m3 and 939.114 ± 0.59 kg/m3 | 929.529 ± 0.6 kg/m3 and 929.437 ± 0.6 kg/m3 | 919.807 ± 0.6 kg/m3 and 919.9 ± 0.61 kg/m3 | 910.12 ± 0.61 kg/m3 and 910.2 ± 0.61 kg/m3
6 | CN(C)C=O [dimethylformamide] + [Cu+2].[O-][Cl+3]([O-])([O-])[O-].[O-][Cl+3]([O-])([O-])[O-] | 958.075 ± 0.58 | 948.565 ± 0.59 | 943.797 ± 0.59 | 939.017 ± 0.59 | 929.437 ± 0.6 | 919.807 ± 0.61 | 910.12 ± 0.61 | – | – | – | – | – | – | –
